From patent US20220370384A1, “COMBINATIONS OF MEK INHIBITORS WITH CAP-DEPENDENT ENDONUCLEASE INHIBITORS” (priority 2019, published 2022)

Columns and labels:
Type in all cases: cell-based, influenza virus
[1] = tested on: rgA/Giessen/6/09 (H1N1-WT)
[2] = tested on: rgA/Victoria/3/75 (H3N2-WT)
[3] = tested on: wild type (wt) strain of A/Mississippi/3/2001 (H1N1)

SMILES: O=C(O)c1ccc(F)c(F)c1Nc1ccc(I)cc1Cl [ATR002, 2-(2-chloro-4-iodophenylamino)-N-3,4-difluoro benzoic acid]
- activity lower (than BLXM) [1]: 13%
- antiviral activity [2]: revealed its potency against both variants

SMILES: COC(=O)OCOc1c2n(ccc1=O)N([C@@H]1c3ccccc3SCc3c1ccc(F)c3F)[C@@H]1COCCN1C2=O [BLXM]
- reduction of the viral titer [1]: approximate complete reduction of the viral titer

SMILES: O=C(NOCC1CC1)c1ccc(F)c(F)c1Nc1ccc(I)cc1Cl [CI-1040]
- antiviral effectiveness [3]: very effective

SMILES: CCOC(=O)C1=C[C@@H](OC(CC)CC)[C@H](NC(C)=O)[C@@H](N)C1 [oseltamivir]
- antiviral effectiveness [3]: very effective
